Reference: patent US4139629A, “Pseudomonic acid amide antibacterial compounds” (priority 1976, dated 1979)
In brackets after ≈: the same amount, converted by molar mass. Read-outs that look alike come from different tables or passages of the source.

Experiments:
[1] = test system: N.gonorrhoeae; test: Activity against N.gonorrhoeae, MIC by serial dilution in 10% horse blood agar; assay type: cell-based; settings: Neisseria gonorrhoeae, 24 h
Protocol: (§1) *Serial dilution in 10% horse blood agar. Incubated in a partial atmosphere of CO2 for 24 hours at 37° C. Inoculated with one drop (0.001ml) of an overnight cell suspension.

[2] = test system: Oxford Staph.; test: MIC by serial dilution in 10% horse blood agar (Table 2); assay type: cell-based; settings: 24 hours at 37° C.
Protocol: as §1

[3] = test system: B. Subtilis; test: Antibacterial activity against Gram-positive organisms (MIC); assay type: cell-based; settings: Bacillus subtilis
[4] = test system: Staph. aureus Oxford; test: as above; assay type: cell-based; settings: Staphylococcus aureus
[5] = test system: Staph. aureus Russell; test: as above; assay type: cell-based; settings: Staphylococcus aureus
[6] = test system: Staph. aureus 1517; test: as above; assay type: cell-based; settings: Staphylococcus aureus
[7] = test system: Strep. faecalis; test: as above; assay type: cell-based; settings: Enterococcus faecalis
[8] = test system: β-Haemolytic Strep. CN10; test: as above; assay type: cell-based
[9] = test system: M. agalactiae ATCC 25025; test: Antimycoplasmal MIC, metabolic-inhibition test in Microtitre plates; assay type: cell-based; settings: Mycoplasmopsis agalactiae, ATCC25025, 168 h; M. agalactiae ATCC 25025, source cattle; 37° C. for 7 days
Protocol: (§2) The method used to test for antimycoplasmal activity was as follows:
(§3) The minimal inhibitory concentration (MIC) of the pseudomonic acid amides was determined in Microtitre plates, by a modification of the metabolic-inhibition test (Taylor-Robinson, 1967). The compounds were serially diluted in sterile de-ionised water to give a range of concentrations from 250-0.5 μg/ml. Mycoplasma broth containing 1% (w/v) of glucose and 0.005% (w/v) of phenol red, was added at a strength to compensate for its dilution by the aqueous drug solution. Approximately 10^4 colony forming units of mycoplasma were added to each concentration of drug. Drug-free infected, non-infected and pH control wells were included on each plate. Plates were sealed with cellophane tape and incubated at 37° C. for 7 days. The MIC was the lowest concentration of compound that prevented a colour change in the mycoplasma broth caused by the metabolism of glucose by the mycoplasmas.

[10] = test system: M. dispar H 225; test: as above; assay type: cell-based; settings: 168 h; M. dispar H 225, source cattle; 37° C. for 7 days
Protocol: as §2, §3

[11] = test system: M. fermentans MWKL4; test: as above; assay type: cell-based; settings: Mycoplasmopsis fermentans, 168 h; M. fermentans MWKL4, source man; 37° C. for 7 days
Protocol: as §2, §3

[12] = test system: M. gallisepticum S6; test: as above; assay type: cell-based; settings: Mycoplasmoides gallisepticum, 168 h; M. gallisepticum S6, source chicken; 37° C. for 7 days
Protocol: as §2, §3

[13] = test system: M. pneumoniae 429 a; test: as above; assay type: cell-based; settings: Mycoplasmoides pneumoniae, 168 h, source man, 37° C. for 7 days
Protocol: as §2, §3

[14] = test system: M. pulmonis `JB`; test: as above; assay type: cell-based; settings: Mycoplasmopsis pulmonis, 168 h, source mouse, 37° C. for 7 days
Protocol: as §2, §3

[15] = test system: M. suipneumoniae (Laber); test: as above; assay type: cell-based; settings: Mesomycoplasma hyopneumoniae, 168 h, source pig, 37° C. for 7 days
Protocol: as §2, §3

[16] = test system: M. synoviae ATCC 25204; test: as above; assay type: cell-based; settings: Mycoplasmopsis synoviae, ATCC25204, 168 h; M. synoviae ATCC 25204, source chicken; 37° C. for 7 days
Protocol: as §2, §3

[17] = test system: mycoplasmas from human and veterinary sources; test: Antimycoplasmal activity in vitro (summary); assay type: cell-based, mycoplasma; settings: in words
Protocol: as §2, §3

[18] = Serum binding by ultrafiltration, filtrate assayed by hole-in-plate method; assay type: in vitro ADME
Protocol: The degree of binding to human serum of the compounds of Examples 1 and 2 compared with that of pseudomonic acid was determined by the following procedure:
Test samples were mixed with human serum and placed in visking tubing. Serum binding was determined by ultrafiltration, the filtrate obtained being assayed by a hole-in-plate method using Bacillus subtilis ATCC 6633 against standards prepared in 0.05M pH7.0 phosphate buffer.

[19] = strain 69, 24 hours at 37° C., read-out: M.I.C.
[20] = strain 70, 24 hours at 37° C., read-out: M.I.C.
[21] = strain 77, 24 hours at 37° C., read-out: M.I.C.
[22] = strain 82, 24 hours at 37° C., read-out: M.I.C.
[23] = strain 87, 24 hours at 37° C., read-out: M.I.C.
[24] = strain 2176, 24 hours at 37° C., read-out: M.I.C.
[25] = strain AR 229, 24 hours at 37° C., read-out: M.I.C.
[26] = strain H2057, 24 hours at 37° C., read-out: M.I.C.
[27] = strain VD 79, 24 hours at 37° C., read-out: M.I.C.
[28] = strain VDRL 67, 24 hours at 37° C., read-out: M.I.C.
[29] = strain WHO VII, 24 hours at 37° C., read-out: M.I.C.

Compound: CC1(C)S[C@@H]2[C@H](NC(=O)Cc3ccccc3)C(=O)N2[C@H]1C(=O)O [Benzyl Penicillin, benzylpenicillin, reference compound]
- MIC ([1]; strain 69, 24 hours at 37° C.): 0.1 µg/mL (≈ 0.299 µM)
- MIC ([1]; strain 70, 24 hours at 37° C.): 0.1 µg/mL (≈ 0.299 µM)
- MIC ([1]; strain 72, 24 hours at 37° C.): 0.2 µg/mL (≈ 0.598 µM)
- MIC ([1]; strain 77, 24 hours at 37° C.): 0.1 µg/mL (≈ 0.299 µM)
- MIC ([1]; strain 82, 24 hours at 37° C.): 0.5 µg/mL (≈ 1.5 µM)
- MIC ([1]; strain 87, 24 hours at 37° C.): 0.01 µg/mL (≈ 0.0299 µM)
- MIC ([1]; strain 2176, 24 hours at 37° C.): 0.2 µg/mL (≈ 0.598 µM)
- MIC ([1]; strain AR 229, 24 hours at 37° C.): 1 µg/mL (≈ 2.99 µM)
- MIC ([1]; strain H2057, 24 hours at 37° C.): 0.005 µg/mL (≈ 0.015 µM)
- MIC ([1]; strain VD 79, 24 hours at 37° C.): 0.2 µg/mL (≈ 0.598 µM)
- MIC ([1]; strain VDRL 67, 24 hours at 37° C.): 0.05 µg/mL (≈ 0.15 µM)
- MIC ([1]; strain WHO VII, 24 hours at 37° C.): 0.005 µg/mL (≈ 0.015 µM)
- MIC [2]: 0.02 µg/mL (≈ 0.0598 µM)

Compound: CNC(=O)CCCCCCCCOC(=O)/C=C(\C)CC1OCC(CC2OC2C(C)C(C)O)C(O)C1O (stereo not drawn) [Example 1, Pseudomonic acid N-methylamide]
- MIC [3]: 0.25 µg/mL (≈ 0.487 µM)
- MIC [4]: 0.5 µg/mL (≈ 0.973 µM)
- MIC [5]: 1.25 µg/mL (≈ 2.43 µM)
- MIC [6]: 1.25 µg/mL (≈ 2.43 µM)
- MIC [7]: 125 µg/mL (≈ 243 µM)
- MIC [1, 19]: 0.002 µg/mL (≈ 0.00389 µM)
- MIC [1, 20]: 0.005 µg/mL (≈ 0.00973 µM)
- MIC [1, 21]: 0.005 µg/mL (≈ 0.00973 µM)
- MIC [1, 22]: 0.05 µg/mL (≈ 0.0973 µM)
- MIC [1, 23]: 0.01 µg/mL (≈ 0.0195 µM)
- MIC [1, 24]: 0.02 µg/mL (≈ 0.0389 µM)
- MIC [1, 25]: 0.05 µg/mL (≈ 0.0973 µM)
- MIC [1, 26]: 0.005 µg/mL (≈ 0.00973 µM)
- MIC [1, 27]: 0.02 µg/mL (≈ 0.0389 µM)
- MIC [1, 28]: 0.002 µg/mL (≈ 0.00389 µM)
- MIC [1, 29]: 0.005 µg/mL (≈ 0.00973 µM)
- MIC [2]: 0.05 µg/mL (≈ 0.0973 µM)

Compound: C/C(=C\C(=O)OCCCCCCCCC(N)=O)CC1OCC(CC2OC2C(C)C(C)O)C(O)C1O (stereo not drawn) [Example 2, Pseudomonic Acid Amide]
- MIC [3]: 0.25 µg/mL (≈ 0.5 µM)
- MIC [4]: 0.5 µg/mL (≈ 1 µM)
- MIC [5]: 1 µg/mL (≈ 2 µM)
- MIC [6]: 2.5 µg/mL (≈ 5 µM)
- MIC [7]: 100 µg/mL (≈ 200 µM)
- MIC [8]: 0.1 µg/mL (≈ 0.2 µM)
- MIC [1, 19]: 0.002 µg/mL (≈ 0.004 µM)
- MIC [1, 20]: 0.005 µg/mL (≈ 0.01 µM)
- MIC ([1]; strain 72, 24 hours at 37° C., read-out: M.I.C.): 0.01 µg/mL (≈ 0.02 µM)
- MIC [1, 21]: 0.02 µg/mL (≈ 0.04 µM)
- MIC [1, 22]: 0.05 µg/mL (≈ 0.1 µM)
- MIC [1, 23]: 0.005 µg/mL (≈ 0.01 µM)
- MIC [1, 24]: 0.02 µg/mL (≈ 0.04 µM)
- MIC [1, 25]: 0.05 µg/mL (≈ 0.1 µM)
- MIC [1, 26]: 0.005 µg/mL (≈ 0.01 µM)
- MIC [1, 27]: 0.02 µg/mL (≈ 0.04 µM)
- MIC [1, 28]: 0.002 µg/mL (≈ 0.004 µM)
- MIC [1, 29]: 0.002 µg/mL (≈ 0.004 µM)
- MIC [2]: 0.05 µg/mL (≈ 0.1 µM)
- MIC [9]: < 0.5 µg/mL
- MIC [10]: < 0.5 µg/mL
- MIC [11]: < 0.5 µg/mL
- MIC [12]: < 0.5 µg/mL
- MIC [13]: 250 µg/mL (≈ 500 µM)
- MIC [14]: < 0.5 µg/mL
- MIC [15]: < 0.5 µg/mL
- MIC [16]: < 0.5 µg/mL
- antimycoplasmal activity in vitro [17]: good antimycoplasmal activity

Compound: C/C(=C\C(=O)OCCCCCCCCC(=O)N(C)C)CC1OCC(CC2OC2C(C)C(C)O)C(O)C1O (stereo not drawn) [Example 3, Pseudomonic acid N,N-dimethylamide]
- MIC [9]: < 0.5 µg/mL
- MIC [10]: < 0.5 µg/mL
- MIC [11]: < 0.5 µg/mL
- MIC [12]: < 0.5 µg/mL
- MIC [13]: 250 µg/mL (≈ 474 µM)
- MIC [14]: < 0.5 µg/mL
- MIC [15]: 3.9 µg/mL (≈ 7.39 µM)
- MIC [16]: < 0.5 µg/mL
- antimycoplasmal activity in vitro [17]: good antimycoplasmal activity

Compound: C/C(=C\C(=O)OCCCCCCCCC(=O)O)C[C@@H]1OC[C@H](C[C@@H]2O[C@H]2[C@@H](C)[C@H](C)O)[C@@H](O)[C@H]1O [Pseudomonic acid]
- % unbound in human serum [18]: 6.8%
- fraction unbound ([18]; human, serum): 0.066
